According to patent EP1996603B1, “LIPID A ANTAGONISTS WITH ANTI-SEPTIC SHOCK, ANTI-INFLAMMATORY, ANTI-ISCHEMIA AND ANALGESIC ACTIVITY” (Università Degli Studi Di Milano - Bicocca, priority 2006, dated 2007):

Key:
BMΦ, BMDC and D1 cells = experiment: Lipid A-induced TNFα production in macrophages and dendritic cells (ELISA); assay type: cell-based, Mouse; conditions: for direct inflammatory function (stimulating cytokines production): cells treated with compound alone, without lipid A
Protocol: BMΦ and DC were derived from bone marrow cells and divided in two separate cultures. For DC preparation bone marrow cells were cultured in complete IMDM supplemented with 10% supernatant of GM-CSF-transduced B16 tumor cells [R. Soiffer, T. Lynch, M. Mihm, K. Jung, C. Rhuda, J. C. Schmollinger, F. S. Hodi, L. Liebster, P. Lam, S. Mentzer, S. Singer, K. K. Tanabe, A. B. Cosimi, R. Duda, A. Sober, A. Bhan, J. Daley, D. Neuberg, G. Parry, J. Rokovich, L. Richards, J. Drayer, A. Berns, S. Clift, L. K. Cohen, R. C. Mulligan, G. Dranoff, Proc. Natl. Acad. Sci. U S A. 1998, 95(22), 13141-13146]. Fresh medium was added every 2 d. After 7-10 d of culture, cells were analyzed for CD11c expression and used in assays when 90% were CD11c positive. For BMΦ preparation bone marrow cells were cultured in complete IMDM supplemented with 10% supernatant of M-CSF-transduced NIH3T3 cells. Also in this case, fresh medium was added every 2 d. After 7-10 d of culture, cells were analyzed for Mac1 expression and used in assays when at least 90% were Mac1 positive. D1 cells were cultured in complete IMDM supplemented with 10% supernatant of GM-CSF-transduced B16 tumor cells.
D1 cells, BMDC and MΦ were plated in 48 well plates at a concentration of 200000 cells/well in 200µL of medium. One or two hours after plating they were treated with different amounts of compounds Ic and Id for 30 min and then stimulated with Lipid A from Escherichia coli (F583, Rd mutant Sigma, 0.5µM) for 18 h.
Given the pivotal role of early-activated DC and MΦ in directing inflammatory reactions, compounds Ia, Ic and Id were tested for their ability to antagonize the stimulatory activity of lipid A on bone marrow derived macrophages (BMΦ) and DC (BMDC) by interfering with their capacity to induce TNFα production. As source of DC, D1 cells, a long term growth factor (GM-CSF)-dependent DC line [C. Winzler et al. J. Exp. Med. 1997, 185, 317-327] were also used. BMΦ, BMDC and D1 cells were stimulated with lipid A (0.5 µM) after a pre-exposure to compounds Ia, Ic and Id and the amount of TNFα released in the supernatant was measured by ELISA.

Chemical stability = assay type: physicochemical; conditions: N,O acetal group at C6 in Ia
Source text: Reagents and conditions: a) ADMA, CSA, DMF, 94%; b) C14H29Br, NaH, DMF, 74%; c) LiAlH4, AlCl3, CH2Cl2/Et2O, 86%; d) Dess- Martin periodinane, CH2Cl2; e) cyclopentylamine, NaBH3CN, AcOH, CH2Cl2, MeOH, 75% over two steps; f) TFA, CH2Cl2, 80%;g) CH3I, Na2CO3, DMF, 94%; h) O-methylhydroxylamine hydrochloride, pyridine, 65% from 6, i) NaBH3CN, glacial AcOH, 92%; l) TFA, CH2Cl2, 90%, m) DHF, PPTS, CH2Cl2, 65%; n) bromocyclopentane, DIPEA.

| chemical stability (Chemical stability) | Compound | direct inflammatory function (stimulating cytokines production) (BMΦ, BMDC and D1 cells) | relative potency as inhibitor of lipid A (BMΦ, BMDC and D1 cells; comparison between compounds Ia, Ic and Id) | TNFα production (BMΦ, BMDC and D1 cells; stimulation with lipid A (0.5 µM) after pre-exposure to compound, TNFα released in the supernatant measured by ELISA, BMΦ, BMDC and D1 cells) |
| --- | --- | --- | --- | --- |
| chemically unstable | CCCCCCCCCCCCCCO[C@H]1[C@@H](OC)O[C@H](CN(OC)C2CCCO2)[C@@H](O)[C@@H]1OCCCCCCCCCCCCCC (stereo partly drawn) [Compound Ia, methyl 6-deoxy-6-[N-(1'-tetrahydrofuranyl)-N'-methoxyamino)-2,3-di-O-tetradecyl-α-D-glucopyranoside] | did not show any direct inflammatory function |  |  |
| more stable than compound (Ia) | CCCCCCCCCCCCCCO[C@H]1[C@@H](OC)O[C@H](CN(OC)C2CCCC2)[C@@H](O)[C@@H]1OCCCCCCCCCCCCCC [Ib, methyl 6-deoxy-6-[N-(cyclopentyl)-N'-methoxyamino)-2,3-di-O-tetradecyl-α-D-glucopyranoside] |  |  |  |
|  | CCCCCCCCCCCCCCO[C@H]1[C@@H](OC)O[C@H](CNC2CCCC2)[C@@H](O)[C@@H]1OCCCCCCCCCCCCCC [Ic, methyl 6-deoxy-6-cyclopentylamino-2,3-di-O-tetradecyl-α-D-glucopyranoside] | did not show any direct inflammatory function | a better inhibitor than Ia | interfered with lipid A's action in a dose-dependent manner |
